Measurements as given in US11571396B2, “Ketamine for treatment of ADNP syndrome and sensory processing deficits” (priority 2019, dated 2023).

Experiments:
ADNP gene expression = details: cited from earlier work; for ADNP gene expression increase: somatosensory cortex of post-natal day 7 rats, sedative dose
[1] = tested on: caspase-3 activation in the hippocampus and somatosensory cortex; experiment: Ketamine-induced neuronal cell death / injury, low-dose ketamine pre-treatment; assay type: in vivo, rats; details: for high dose ketamine induced injury: low dose ketamine 5 mg/kg, NAP administration
From the text: ADNP induction may be partially responsible for the efficacy of a low-dose ketamine pre-treatment in preventing ketamine-induced neuronal cell death. […] It is therefore theorized that low-dose ketamine prevents high-dose ketamine injury at least in part by increasing expression of ADNP.

Neurons = Neurons treated with low concentration ketamine: ADNP levels and growth cones; assay type: cell-based
From the text: We believe that low-dose ketamine, by inducing ADNP, does more than could be with NAP alone.

growth cones = details: cited from earlier work

Molecule | ADNP gene expression increase (ADNP gene expression) [fold] | apoptosis ([1]; high-dose ketamine, rats) | expression of ADNP ([1]; high-dose ketamine, rats) | high dose ketamine induced injury [1] | ADNP levels ([1]; low-dose ketamine) | caspase-3 activation ([1]; low-dose ketamine, hippocampus and somatosensory cortex) | gene expression of ADNP (ADNP gene expression; anesthetic doses) | ADNP protein levels (ADNP gene expression; low doses, including in the somatosensory cortex) | ADNP expression (ADNP gene expression; low doses) | negative effects of decreased growth cones (Neurons; 50 μM) | ADNP levels (Neurons; 50 μM, compared with higher ketamine dosing) | location of primary increase in ADNP (Neurons; following ketamine treatment) | total cellular ADNP levels (Neurons; low concentration exposure, 50 or 100 μM) | ADNP in neurites (Neurons; low concentration of ketamine) | growth cones (Neurons; low concentration of ketamine) | invasion of dynamic microtubules into growth cones (growth cones)
C[C@]12N[C@H](Cc3ccccc31)c1ccccc12 [MK801] | 1.5 | – | – | – | – | – | – | – | – | – | – | – | – | – | – | –
CNC1(c2ccccc2Cl)CCCCC1=O (stereo not drawn) [ketamine] | 1.5 | induce apoptosis | induce | blocks high dose ketamine induced injury | increases ADNP levels | prevents caspase-3 activation | induce gene expression of ADNP | increase ADNP protein levels | induce ADNP expression | not observed | increased at a rate equivalent to higher ketamine dosing | the primary increase in ADNP occurred in the nucleus | notably increased | significant increase | stably expanded growth cones | –
NAPVSIPQ | – | – | – | blocks high dose ketamine induced injury | – | – | – | – | – | – | – | – | – | – | – | enhance the invasion of dynamic microtubules into growth cones
